Structures are written as SMILES. In brackets after ≈: the same amount, converted by molar mass.

The record followed here is US12427151B2, “Compositions and method of treating cancer” (The Regents of the University of California, priority 2017, dated 2025).

Assay [1] deals with P. acnes ATCC6919. Briefly: MBC determination. Conditions: Cutibacterium acnes, 3-log reduction, 24 hour, 37° C., half strength MHB in PBS. The assay is classed as cell-based, Propionibacterium acnes.
Assay [2] deals with GAS. Briefly: Comparison of antimicrobial activity of natural and synthetic 6-HAP. The following applies: THB overnight, OD600. The assay is classed as cell-based, group A Streptococcus. The method, then: GAS (1×10^5 CFU/mL) were incubated with indicated concentrations of purified 6-HAP or synthetic 6-HAP in THB overnight. Bacterial growth was monitored by measuring OD600 (relative % of growth index).
Structural analyses of antibiotic produced by S. epidermidis. High-resolution electrospray (ES)-mass spectrometry analysis of the purified antimicrobial fraction identified a molecule with a mass of 151.0487, predicting a molecular formula of C5H5N5O (calculated: 151.0489) (FIG. 3a). […] Given the chemical formula as C5H5N5O, the structure was predicted as 6-N-hydroxyaminopurine (6-HAP). To confirm this predicted structure we performed a chemical synthesis of 6-HAP. […] In addition, the fragmentation profile of natural compound by electron-impact MS (FIG. 3e) also matched that of synthetic product (FIG. 3f).

Assay [3] deals with S. hominis ATCC27844. The assay can be described thus: MBC determination. The assay is classed as cell-based. The following applies: Staphylococcus hominis, 3-log reduction, 24 hour, 37° C., half strength MHB in PBS. The method, then: (§1) To determine MBC, bacteria were cultured in TSB (Staphylococcus), THB (Streptococcus) or Nutrient broth (P. aeruginosa and E. coli) by reaching exponential phase (OD600=0.5-0.8). […] After incubation, the number of viable bacteria was measured by counting CFU after spreading 10-fold serial dilutions of bacteria on suitable agar plates. MBC was determined as a 3-log reduction (99.9%) of viable bacteria after 24 hour incubation.
(§2) Antimicrobial activity of 6-HAP in vitro. To examine the specificity of 6-HAP for various bacteria, minimal bactericidal concentrations (MBCs) were determined according to dose-dependent killing curves at 24 hrs of incubation in vitro (Table 1). 6-HAP killed or suppressed growth of several major skin pathogens including GAS (NZ131), group B Streptococcus (GBS) (DK23), methicillin-sensitive S. aureus (ATCC35556), methicillin-resistant S. aureus (MRSA) strains (USA300 and Sanger252), Pseudomonas aeruginosa (P. aeruginosa) (ATCC14213) in vitro. […] S. epidermidis (ATCC12228) was also resistant to 6-HAP.

The test system of assay [4] is S. aureus ATCC35556. Briefly: MBC determination. In kind it is cell-based. Conditions: Staphylococcus aureus, 3-log reduction, 24 hour, 37° C., half strength MHB in PBS. The method, then: as §1, §2
For assay [5], the system named is S. epidermidis ATCC12228. Briefly: MBC determination. The assay is classed as cell-based. The following applies: Staphylococcus epidermidis, 3-log reduction, 24 hour, 37° C., half strength MHB in PBS. On the procedure: as §1, §2
Assay [6] relates to E. coli ATCC25922. Briefly: MBC determination. The assay is classed as cell-based. The following applies: Escherichia coli, 3-log reduction, 24 hour, 37° C., half strength MHB in PBS. On the procedure:
as §1, §2

In assay [7] the test system is P. aeruginosa ATCC14213. The assay can be described thus: MBC determination. In kind it is cell-based. The following applies: Pseudomonas aeruginosa, 3-log reduction, 24 hour, 37° C., half strength MHB in PBS. The method, then: as §1, §2
For assay [8], the system named is GAS. The assay can be described thus: Subcutaneous GAS deep skin infection in mice. In kind it is in vivo, C57BL6 mouse. Conditions: single intravenous injection 20 mg/kg after GAS inoculation. On the procedure:
(a-c) Effect of a single intravascular injection of 6-HAP on skin infection by GAS. The size of the infected lesion was measured by Image-J software (a). Representative images of infected skin (arrow) of mouse treated with 6-HAP or vehicle at Day-1 and Day-3 post infection are shown in (b). Infected skin was removed 24 and 72 hrs after bacterial injection and homogenized in PBS (c). CFUs were enumerated by plating serial dilutions of the homogenate on an agar plate. The data represent mean±SE of eight individual experiments (*P<0.05 and **P<0.01 by Student's t-test vs vehicle control). (d-e) Effect of repeated intravascular administrations with 6-HAP on growth of melanoma in mice. The data represent mean±SE of 10 individual experiments (*P<0.05, **P<0.01 and ***P<0.001 by Student's t-test vs vehicle control) (d). Representative images of tumor (broken line) in mouse treated with 6-HAP or vehicle at Day-9 and Day-13 are shown in (e).
For subcutaneous infection, mouse dorsal skin was subcutaneously injected with GAS (1×10^7 CFU/50 μL in PBS) by 31 G needle. […] Wound development was monitored everyday by taking photographs along with a wound ruler and lesion size was measured with ImageJ ([http://]rsbweb.nih.gov/ij/)(hyperlink disabled by brackets). […]

Assay [9] relates to GAS NZ131. Briefly: MBC determination. In kind it is cell-based, group A Streptococcus. Conditions: Streptococcus, 3-log reduction of viable bacteria after 24 hour incubation at 37° C. in half strength MHB in PBS. The method, then:
as §1, §2

Regarding `ONc1ncnc2nc[nH]c12` [6-HAP, 6-N-hydroxyaminopurine], the minimum bactericidal concentration (MBC) (in general, the smallest concentration meeting the test's criterion for killing) was above 100 µg/mL in assay [1]; 12.5 µg/mL (≈ 82.7 µM) in assay [3]; 6.25 µg/mL (≈ 41.4 µM) in assay [4]; above 50 µg/mL in assay [5]; 50 µg/mL (≈ 331 µM) in [6]; 1.56 µg/mL (≈ 10.3 µM) in assay [7]. In assay [9], the minimum bactericidal concentration (MBC) came to 0.156 µg/mL (≈ 1.03 µM). Moreover, the “antimicrobial activity against GAS, synthetic versus natural product” value in assay [2] is “comparable to that of natural product”. Moreover, the “GAS survival in infected skin” value in [8] is “significantly suppressed”. Further, the clinical lesion size result in assay [8] was “significantly suppressed”.
